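Following 48 hours of exposure in 96-well plates, responses at five concentrations were used to interpolate endpoints linearly. At the TGI there is no net growth.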
Columns and labels:
Assay in all cases: NCI tumour cell line growth inhibition, 48 h
RXF-631 renal = system: RXF-631 renal
LXFL 529 NSCLC = system: LXFL 529 NSCLC
XF 498 CNS = system: XF 498 CNS
DLD-1 colon = system: DLD-1 colon
DMS 114 small cell lung = system: DMS 114 small cell lung
DU-145 prostate = system: DU-145 prostate
MDA-N = system: MDA-N
BT-549 breast = system: BT-549 breast
SN12K1 renal = system: SN12K1 renal
P388/ADR leukemia = system: P388/ADR leukemia
P388 leukemia = system: P388 leukemia

SMILES	TGI (RXF-631 renal) [µM]	TGI (LXFL 529 NSCLC) [µM]	TGI (XF 498 CNS) [µM]	TGI (DLD-1 colon) [µM]	TGI (DMS 114 small cell lung) [µM]	TGI (DU-145 prostate) [µM]	TGI (MDA-N) [µM]	TGI (BT-549 breast) [µM]	TGI (SN12K1 renal) [µM]	TGI (P388/ADR leukemia) [µM]	TGI (P388 leukemia) [µM]
O=c1[nH]c(=O)n(C2CC(O)C(CO)O2)cc1COCC(F)(F)F (stereo not given)	> 100	> 100	> 100	> 100	> 100	–	–	–	–	–	–
C/C(CC(=O)Nc1ccc(NC(=O)C/C(C)=N\NC(N)=O)cc1)=N/NC(N)=O	> 100	> 100	> 100	> 66.6	> 53.3	–	–	–	–	–	–
CC(C)=C1CCC(CN2CCOCC2)C1=O (stereo not given)	> 31	6.25	26.4	10.8	25	30.4	35.1	31.8	–	–	–
COc1cccc2nc3c(C(=O)NCCN(C)C)cccc3nc12	> 67.2	42.4	29.1	> 83.6	21	–	–	–	–	–	–
COC(=O)CC(C(C(C)=O)C(=O)OCc1ccccc1)N1C(=O)OC(c2ccccc2)C1c1ccccc1 (stereo not given)	> 100	> 100	> 100	> 100	> 100	–	–	–	–	–	–
CC(=O)OC1C(O[C@H]2CC[C@]34O[C@]35CC[C@]3(C)C(C6(C)CC[C@@H](C(C)(C)O)O6)[C@@H](O)CC3(C)[C@@H]5CC(OC3OC(CO)C(O)C(O)C3O)C4C2(C)C)OCC(O)C1O (stereo not given in full)	> 100	> 100	> 100	> 100	> 100	–	–	–	–	–	–
CC1=C(C(=O)Nc2ccccc2)C(c2cc(Cl)cc(Cl)c2)C(C(=O)Nc2ccccc2)=C(C)N1	63.5	17.9	27.5	20.2	18.1	–	–	–	–	–	–
CCN(CC)c1ccc(N=Nc2ccc(-c3nc4cccn(C)c-4n3)cc2)cc1	33.7	15.8	28.1	36.1	13	–	–	–	–	–	–
CC1(C)C(=O)C(=Cc2ccco2)C1=O	> 100	> 100	> 100	> 100	> 100	–	–	–	–	–	–
COc1ccc2c(c1)CCc1c(CO)c(COC(=O)NC(C)C)n(C)c1-2	> 100	15.9	> 62.6	15.8	12.3	–	–	–	17.2	6.22	3.54
COC(=O)/C(=C/c1ccc(OC)cc1)C(C(=O)O)=C1CCCCC1	> 100	> 100	> 100	> 100	–	–	–	–	–	–	–
O=C(NCc1ccc2ccc3cccnc3c2n1)c1ccc[n+](Cc2ccccc2)c1	> 100	> 100	> 100	> 100	> 100	–	–	–	–	–	–
COc1cc2c(c(OC)c1OC)-c1ccc(SC)c(=O)cc1C(CC(=O)Oc1cccc(F)c1)C2 (stereo not given)	20.7	> 40.8	36.8	> 100	1.07	–	–	–	–	–	–

Reference: PubChem BioAssay (NCI)
